From patent US4808616A, “6-substituted androsta-1,4-diene-3,17-diones” (Farmitalia Carlo Erba S.r.l., priority 1985, dated 1989)

Tests used:
[1] = women; cited from earlier work
rat ovarian aromatase = experiment: Inhibition of rat ovarian aromatase in vivo (PMSG-treated adult female rats, oral)
[2] = biological target: T1, human placental aromatase (Homo sapiens, UniProt P11511); experiment: Inhibition of human placental aromatase in vitro; type: biochemical
T1 construct: isolated from the microsomal fraction of human placental tissue; from tissue; host or cells: human placenta, microsomal fraction
T1 sequence (P11511 1-503): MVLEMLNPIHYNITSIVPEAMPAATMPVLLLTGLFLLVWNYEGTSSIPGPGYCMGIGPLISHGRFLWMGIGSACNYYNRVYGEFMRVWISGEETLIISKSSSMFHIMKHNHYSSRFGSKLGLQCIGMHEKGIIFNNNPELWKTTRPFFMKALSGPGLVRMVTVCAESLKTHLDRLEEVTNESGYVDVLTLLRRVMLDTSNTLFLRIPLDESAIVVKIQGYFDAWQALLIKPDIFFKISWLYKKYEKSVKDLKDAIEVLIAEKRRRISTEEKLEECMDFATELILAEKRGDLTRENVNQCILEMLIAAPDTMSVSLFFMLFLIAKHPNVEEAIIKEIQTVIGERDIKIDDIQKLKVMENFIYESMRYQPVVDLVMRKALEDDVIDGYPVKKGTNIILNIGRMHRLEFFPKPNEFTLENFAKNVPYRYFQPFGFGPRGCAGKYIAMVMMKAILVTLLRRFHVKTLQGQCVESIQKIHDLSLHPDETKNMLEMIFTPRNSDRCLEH

[3] = 30 mg/kg p.o., rats, ovaries taken 24 hrs later

SMILES | conjugation after oral administration [1] | % Aromatase inhibition at 30 mg/kg p.o. (result in words) (rat ovarian aromatase; [3]) | effectiveness in vivo by oral route (in words) (rat ovarian aromatase; administered in vivo by oral route) | % Aromatase inhibition at 30 mg/kg p.o. (rat ovarian aromatase; [3]) | Relative potency [2]
C[C@]12CCC(=O)C(O)=C1CC[C@@H]1[C@@H]2CC[C@]2(C)C(=O)CC[C@@H]12 [4-hydroxy-androst-4-ene-3,17-dione] | extensively conjugated after oral administration | inactive | ineffective |  | 
C=C1C[C@@H]2[C@H](CC[C@]3(C)C(=O)CC[C@@H]23)[C@@]2(C)CCC(=O)C=C12 [6-methylenandrost-4-ene-3,17-dione, reference compound] |  | inactive |  |  | 
C[C@]12C=CC(=O)C=C1CC[C@@H]1[C@@H]2CC[C@]2(C)C(=O)CC[C@@H]12 [androsta-1,4-diene-3,17-dione] |  |  |  | 37% | 
C[C@]12C=CC(=O)C=C1CC[C@@H]1[C@@H]2CC[C@]2(C)OC(=O)CC[C@@H]12 [Δ^1 -testololactone, reference compound] |  | inactive |  |  | 0.005
